According to patent publication US20240076272A1, “Activators of Heme Regulated Inhibitor Kinase (HRI)” (The Brigham and Women`s Hospital, Inc., priority 2019, published 2024):

Key:
[1] = tested on: eIF2α phosphorylation (ATF-4 5′UTR luciferase reporter); assay: surrogate eIF2α phosphorylation dual-luciferase reporter (DLR) assay; assay type: cell-based; conditions: F/R luciferase ratio normalized to DMSO wells (F/R=1); for fold induction at 1.25 µM: read-out: Fold stimulation of ATF-4 Surrogate eIF2α @ 1.25 μM; for fold induction at 5 µM: read-out: Fold stimulation of ATF-4 Surrogate eIF2α @ 5 μM
Text: The dual luciferase expression vector and other plasmids used in the Examples provided herein have been previously reported (see e.g., Ziegeler et al, J. Biol. Chem. 285 (2010) 15408-15419). The dual luciferase surrogate eIF2α phosphorylation assay, has also been previously reported (see e.g., Chen et al, Nat. Chem. Biol. 7 (2011) 610-616). Briefly, a dual Renilla and Firefly luciferase mammalian reporter vector that transcribes both mRNAs from the same bi-directional enhancer/promoter complex was utilized for generation of surrogate eIF2α phosphorylation assay (see e.g., Ziegeler et al, J. Biol. Chem. 285 (2010) 15408-15419). Both mRNAs contained the same 90 nucleotide plasmid derived 5′UTR. In addition, 5′UTR of the Firefly luciferase open reading frame was fused in-frame to the 267 nucleotide ATF-4 5′UTR (see e.g., Chen et al, Nat. Chem. Biol. 7 (2011) 610-616).
Cells expressing firefly and renilla luciferases were assayed with a dual glow luciferase assay kit, per manufacturer's instruction (Promega Inc., Madison, WI). The data calculations were carried out as the ratio of firefly to renilla luciferase signal (see e.g., Ziegeler et al, J. Biol. Chem. 285 (2010) 15408-15419). Dose-response curves were obtained, and triplicate data points were fitted to the logistical sigmoidal model using nonlinear least-squares regression performed in GraphPad Prism 6.
All newly synthesized N,N′-disubstituted ureas were initially evaluated by testing in the surrogate eIF2α phosphorylation dual-luciferase reporter (DLR) assay (see e.g., Chen et al, Nat. Chem. Biol. 7 (2011) 610-616; and Ziegeler et al, J. Biol. Chem. 285 (2010) 15408-15419). Briefly, this assay takes advantage of the fact that activated HRI phosphorylates eIF2α which inhibits eIF2 guanine nucleotide exchange factor eIF2B, responsible for exchanging the GDP in the eIF2·GDP complex for GTP. The reduction in the recycling of eIF2·GDP into eIF2·GTP interferes with the formation of eIF2·GTP·Met-tRNAi ternary complex. […] These include mRNA coding for activating transcription factor 4 (ATF-4) (see e.g., Aktas et al, Oncotarget, 4 (2013) 1606-1617; Aktas et al, Oncotarget, 6 (2015) 6902-6914; and Aktas et al, Proc. Natl. Acad. Sci. U.S.A. 95 (1998) 8280-8285).
In the present assay, firefly (F) luciferase mRNA was fused to the 5′UTR of ATF-4 mRNA that had multiple uORFs, while renilla (R) luciferase mRNA was fused to a 5′UTR lacking any uORFs. Agents that reduce the amount of the eIF2·GTP·Met-tRNAi ternary complex, such as N,N′-disubstituted ureas that activate HRI, increase F luciferase expression while reducing the R luciferase expression, resulting in an increased F/R luciferase ratio. The ureas of the present application were tested at 10 μM, 5 μM, 2.5 μM, and 1.25 μM concentrations in 96-well assay plates (see e.g., Chen et al, Nat. Chem. Biol. 7 (2011) 610-616; and Bai et al, ChemBioChem, 14 (2013) 1255-1262). The activity scores as the F/R ratios were calculated for every compound-treated well and normalized to F/R ratio of vehicle-treated (DMSO) wells in the same plate, arbitrarily set at 1 (F/R=1). Data obtained in the surrogate dual-luciferase eIF2α phosphorylation (DLR) assay for the series of 1-phenyl-3/4-(4-trifluorometyl) phenoxy-cycloalkyl)ureas (4-CF3-ΦcAlkΦUs) and 1-phenyl-3-(5-(4-(trifluoromethyl) phenoxy)pyrimidin-2-yl)ureas (4-CF3-ΦOPyΦUs) described herein are shown in Tables 1-2.

[2] = tested on: human melanoma CRL-2813 cells; assay: sulforhodamine B (SRB) cell proliferation assay; assay type: cell-based; conditions: Homo sapiens, CRL2813, 120 h, 5 days, read-out: IC50 (concentration that inhibits growth of human melanoma CRL-2813 cells by 50%)
Experimental: Cells were seeded in 96-well plates and maintained for 5 days in the presence of 0.5 μM to 20 μM of individual compound, and cell proliferation was measured by the sulforhodamine B (SRB) assay according to previous reports (see e.g., Palakurthi et al, Cancer Res. 60 (2000) 2919-2925): briefly, at the end of a 5-day treatment, cells were fixed in 10% cold trichloroacetic acid. Cell number was estimated by measuring the remaining bound dye of sulforhodamine B after washing. The percentage of growth was calculated by using the equation: 100×[(T-T0)/(C-T0)], where T and C represent the absorbance in treated and control cultures at Day 5, and T0 at time zero, respectively. If T was less than T0, cell death had occurred and was calculated from 100×[(T-T0)/T0].
All 4-CF3-ΦOcAlkΦUs were tested in the sulforhodamine B (SRB) cell proliferation assay to establish the concentrations that inhibit human melanoma CRL-2813 cells growth by 50% (IC50) (see Table 1). This activity reflects a combined effect of membrane permeability and overall anti-proliferative effects that include on target and off-target effects.

| IC50 [2] [nM] | melting point [°C] | SMILES | Fold stimulation of ATF-4 Surrogate eIF2α @ 1.25 μM [1] [fold] | fold induction at 1.25 µM [1] | fold induction at 5 µM ([1]; 5 μM) | Fold stimulation of ATF-4 Surrogate eIF2α @ 5 μM ([1]; 5 μM) [fold] |
| --- | --- | --- | --- | --- | --- | --- |
| 900 | 194.6 to 196.1 | N#Cc1cc(NC(=O)N[C@H]2C[C@@H](Oc3ccc(C(F)(F)F)cc3)C2)cc(C(F)(F)F)c1 [Compound 1-IVc, 1-(3-Cyano-5-(trifluoromethyl)phenyl)-3-(cis-3-(4-(trifluoromethyl)phenoxy)cyclobutyl)urea] | 4.3 ± 0.6 | 4.3 | 8.4 ± 0.5 | – |
| 1200 | 144.4 to 146.2 | N#Cc1cc(NC(=O)N[C@H]2CC[C@H](Oc3ccc(C(F)(F)F)cc3)C2)cc(C(F)(F)F)c1 [Compound 1-V, 1-(3-Cyano-5-(trifluoromethyl)phenyl)-3-((1S,3S)-3-(4-(trifluoromethyl)phenoxy)cyclopentyl)urea] | 3.1 ± 0.7 | 3.1 | 8.3 | 8.3 ± 2.4 |
| – | 263.5 to 265.5 | N#Cc1cc(NC(=O)Nc2ncc(Oc3ccc(C(F)(F)F)cc3)cn2)cc(C(F)(F)F)c1 [Compound 1-py, 1-(3-Cyano-5-(trifluoromethyl)phenyl)-3-(5-(4-(trifluoromethyl)phenoxy)pyrimidin-2-yl)urea] | – | – | – | – |
| 3400 ± 1000 | 171.8 to 174.6 | O=C(Nc1cccc(C(F)(F)F)c1)N[C@H]1C[C@H](Oc2ccc(C(F)(F)F)cc2)C1 [Compound 2-IV, 1-(trans-3-(4-(Trifluoromethyl)phenoxy)cyclobutyl)-3-(3-(trifluoromethyl)phenyl)urea] | – | 2.4 ± 0.6 | 6.5 ± 1.2 | – |
| 2600 ± 400 | 166.6 to 168.5 | O=C(Nc1cccc(C(F)(F)F)c1)N[C@H]1C[C@@H](Oc2ccc(C(F)(F)F)cc2)C1 [Compound 2-IVc, 1-(cis-3-(4-(Trifluoromethyl)phenoxy)cyclobutyl)-3-(3-(trifluoromethyl)phenyl)urea] | – | 1.2 ± 0.3 | 6.2 ± 1.2 | – |
| 2500 ± 500 | 123.5 to 125.3 | O=C(Nc1cccc(C(F)(F)F)c1)N[C@H]1CC[C@H](Oc2ccc(C(F)(F)F)cc2)C1 [Compound 2-V] | – | 1.2 ± 0.4 | 7 ± 0.9 | – |
| – | 232.5 to 234.8 | O=C(Nc1cccc(C(F)(F)F)c1)Nc1ncc(Oc2ccc(C(F)(F)F)cc2)cn1 [Compound 2-py, 1-(5-(4-(Trifluoromethyl)phenoxy)pyrimidin-2-yl)-3-(3-(trifluoromethyl)phenyl)urea] | – | – | – | – |
| 4900 | 181.1 to 182.3 | N#Cc1cccc(NC(=O)N[C@H]2C[C@H](Oc3ccc(C(F)(F)F)cc3)C2)c1 [Compound 3-IV, 1-(3-Cyanophenyl)-3-(trans-3-(4-(trifluoromethyl)phenoxy)cyclobutyl)urea] | 1.6 ± 0.2 | 1.6 | 3.5 ± 0.4 | – |
| > 10000 | 203.7 to 206.8 | N#Cc1cccc(NC(=O)N[C@H]2C[C@@H](Oc3ccc(C(F)(F)F)cc3)C2)c1 [Compound 3-IVc, 1-(3-Cyanophenyl)-3-(cis-3-(4-(trifluoromethyl)phenoxy)cyclobutyl)urea] | 1.1 ± 0.2 | 1.1 | 0.9 ± 0.1 | – |
| 6500 ± 2300 | 160.2 to 162.1 | N#Cc1cccc(NC(=O)N[C@H]2CC[C@H](Oc3ccc(C(F)(F)F)cc3)C2)c1 [Compound 3-V] | – | 0.8 ± 0.2 | 1.6 ± 0.2 | – |
| – | 260.2 to 261.5 | N#Cc1cccc(NC(=O)Nc2ncc(Oc3ccc(C(F)(F)F)cc3)cn2)c1 [Compound 3-py, 1-(3-Cyanophenyl)-3-(5-(4-(trifluoromethyl)phenoxy)pyrimidin-2-yl) urea] | – | – | – | – |
| 2800 ± 1300 | 182.8 to 185 | N#Cc1cc(F)cc(NC(=O)N[C@H]2C[C@H](Oc3ccc(C(F)(F)F)cc3)C2)c1 [Compound 4-IV, 1-(3-Cyano-5-fluorophenyl)-3-(trans-3-(4-(trifluoromethyl)phenoxy)cyclobutyl)urea] | – | 2 ± 0.4 | 5.3 ± 0.6 | – |
| 1900 ± 1300 | 176.2 to 177.8 | N#Cc1cc(F)cc(NC(=O)N[C@H]2CC[C@H](Oc3ccc(C(F)(F)F)cc3)C2)c1 [Compound 4-V] | – | 2.4 ± 0.3 | 8 ± 2 | – |
| – | 267.5 to 270 | N#Cc1cc(F)cc(NC(=O)Nc2ncc(Oc3ccc(C(F)(F)F)cc3)cn2)c1 [Compound 4-py, 1-(3-Cyano-5-fluorophenyl)-3-(5-(4-(trifluoromethyl)phenoxy)pyrimidin-2-yl)urea] | – | – | – | – |
| > 10000 | 204.2 to 206 | Cc1ccc(F)cc1NC(=O)N[C@H]1C[C@H](Oc2ccc(C(F)(F)F)cc2)C1 [Compound 7-IV, 1-(5-Fluoro-2-methylphenyl)-3-(trans-3-(4-(trifluoromethyl)phenoxy)cyclobutyl)urea] | – | 0.7 ± 0.2 | 1.4 ± 0.1 | – |
| 8000 ± 2500 | 209.8 to 211.4 | Cc1ccc(F)cc1NC(=O)N[C@H]1CC[C@H](Oc2ccc(C(F)(F)F)cc2)C1 [Compound 7-V, 1-(5-Fluoro-2-methylphenyl)-3-((1S,3S)-3-(4-(trifluoromethyl)phenoxy)cyclopentyl)urea] | – | 1.4 ± 0.1 | 1.3 ± 0.4 | – |
| – | 224.2 to 226.5 | Cc1ccc(F)cc1NC(=O)Nc1ncc(Oc2ccc(C(F)(F)F)cc2)cn1 [Compound 7-py, 1-(5-Fluoro-2-methylphenyl)-3-(5-(4-(trifluoromethyl)phenoxy)pyrimidin-2-yl)urea] | – | – | – | – |
| 1400 ± 300 | 221.6 to 223.6 | N#Cc1ccc(NC(=O)N[C@H]2CC[C@H](Oc3ccc(C(F)(F)F)cc3)CC2)c(F)c1 [Compound 8-VI, 1-(4-Cyano-2-fluorophenyl)-3-(trans-4-(4-(trifluoromethyl)phenoxy)cyclohexyl)urea] | – | 2.4 ± 0.4 | 6.2 ± 1.3 | – |
| – | 224.8 to 226.2 | O=C(Nc1ccc(F)c(F)c1)Nc1ncc(Oc2ccc(C(F)(F)F)cc2)cn1 [Compound 10-py, 1-(3,4-Difluorophenyl)-3-(5-(4-(trifluoromethyl)phenoxy)pyrimidin-2-yl) urea] | – | – | – | – |
